Source: PubChem BioAssay AID328 (DTP/NCI, 2004)
Where “and” joins values, the source holds several entries; their conditions need not be identical. Equal entries are not always repeated. Inconclusive results and toxic doses are left out.

Test system: BDF1 mice, P388 leukemia ip, median survival T/C
Experiment: NCI In Vivo Anticancer Drug Screen. Data for tumor model P388 Leukemia (intraperitoneal) in B6D2F1 (BDF1) mice
Conditions: endpoint: median survival time, higher = longer survival
Procedure, shortened: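 Mice carrying the transplantable tumour receive compound or vehicle. Survival is followed in each arm, and the treated measure is divided by the vehicle measure.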

Question: With `COC1C(O)CC(OC2CC(Oc3cc4cc5c(c(O)c4c(O)c3C)C(=O)[C@@H](OC3CC(OC4CC(OC6CC(C)(O)C(OC(C)=O)C(C)O6)C(O)C(C)O4)C(O)C(C)O3)[C@H]([C@H](OC)C(=O)[C@@H](O)[C@@H](C)O)C5)OC(C)C2OC(C)=O)OC1C` (stereo not given in full) as the compound, how does the T/C (dose: 0.02 mg/kg/injection, schedule: Q01DX005 (ip), vehicle: saline) read?
Answer: 166 % of control

Question: What about the T/C (dose: 0.03 mg/kg/injection, schedule: Q01DX001 (ip), vehicle: saline) of the same compound?
Answer: 109 % of control

Question: What about the T/C (dose: 0.03 mg/kg/injection, schedule: Q01DX005 (ip), vehicle: saline) of the same compound?
Answer: 168 % of control

Question: What about the T/C (dose: 0.03 mg/kg/injection, schedule: Q01DX009 (ip), vehicle: saline) of the same compound?
Answer: 150 % of control

Question: What about the T/C (dose: 0.05 mg/kg/injection, schedule: Q01DX005 (ip), vehicle: clinical formulation) of the same compound?
Answer: 183 % of control

Question: And the T/C (dose: 0.05 mg/kg/injection, schedule: Q01DX005 (ip), vehicle: saline)?
Answer: 166 % of control and 183 % of control and 187 % of control

Question: And the T/C (dose: 0.06 mg/kg/injection, schedule: Q01DX005 (ip), vehicle: saline)?
Answer: 172 % of control

Question: What about the T/C (dose: 0.06 mg/kg/injection, schedule: Q01DX009 (ip), vehicle: saline) of the same compound?
Answer: 172 % of control

Question: What about the T/C (dose: 0.1 mg/kg/injection, schedule: Q01DX005 (ip), vehicle: clinical formulation) of the same compound?
Answer: 200 % of control

Question: What about the T/C (dose: 0.1 mg/kg/injection, schedule: Q01DX005 (ip), vehicle: saline) of the same compound?
Answer: 187 % of control (2×) and 193 % of control

Question: And the T/C (dose: 0.13 mg/kg/injection, schedule: Q01DX001 (oral), vehicle: saline)?
Answer: 100 % of control

Question: And the T/C (dose: 0.13 mg/kg/injection, schedule: Q01DX001 (sc), vehicle: Klucel (hydroxypropylcellulose) (HPC))?
Answer: 100 % of control

Question: And the T/C (dose: 0.13 mg/kg/injection, schedule: Q01DX005 (ip), vehicle: saline)?
Answer: 177 % of control

Question: And the T/C (dose: 0.13 mg/kg/injection, schedule: Q01DX009 (ip), vehicle: saline)?
Answer: 172 % of control

Question: And the T/C (dose: 0.13 mg/kg/injection, schedule: Q01DX010 (oral), vehicle: saline)?
Answer: 100 % of control

Question: And the T/C (dose: 0.13 mg/kg/injection, schedule: Q01DX010 (sc), vehicle: Klucel (hydroxypropylcellulose) (HPC))?
Answer: 109 % of control

Question: What about the T/C (dose: 0.15 mg/kg/injection, schedule: Q01DX005 (ip), vehicle: clinical formulation) of the same compound?
Answer: 225 % of control

Question: What about the T/C (dose: 0.15 mg/kg/injection, schedule: Q01DX005 (ip), vehicle: saline) of the same compound?
Answer: 204 % of control

Question: What about the T/C (dose: 0.2 mg/kg/injection, schedule: Q01DX005 (ip), vehicle: clinical formulation) of the same compound?
Answer: 170 % of control

Question: And the T/C (dose: 0.2 mg/kg/injection, schedule: Q01DX005 (ip), vehicle: saline)?
Answer: 254 % of control and 260 % of control and 158 % of control

Question: What about the T/C (dose: 0.25 mg/kg/injection, schedule: Q01DX001 (sc), vehicle: Klucel (hydroxypropylcellulose) (HPC)) of the same compound?
Answer: 100 % of control

Question: What about the T/C (dose: 0.25 mg/kg/injection, schedule: Q01DX009 (ip), vehicle: saline) of the same compound?
Answer: 95 % of control

Question: And the T/C (dose: 0.25 mg/kg/injection, schedule: Q01DX010 (sc), vehicle: Klucel (hydroxypropylcellulose) (HPC))?
Answer: 95 % of control

Question: What about the T/C (dose: 0.25 mg/kg/injection, schedule: Q04DX003 (ip), vehicle: saline) of the same compound?
Answer: 200 % of control

Question: And the T/C (dose: 0.4 mg/kg/injection, schedule: Q01DX001 (ip), vehicle: saline)?
Answer: 150 % of control

Question: What about the T/C (dose: 0.5 mg/kg/injection, schedule: Q01DX001 (ip), vehicle: other) of the same compound?
Answer: 175 % of control

Question: What about the T/C (dose: 0.5 mg/kg/injection, schedule: Q01DX001 (oral), vehicle: saline) of the same compound?
Answer: 95 % of control

Question: And the T/C (dose: 0.5 mg/kg/injection, schedule: Q01DX001 (sc), vehicle: Klucel (hydroxypropylcellulose) (HPC))?
Answer: 109 % of control

Question: What about the T/C (dose: 0.5 mg/kg/injection, schedule: Q01DX010 (oral), vehicle: saline) of the same compound?
Answer: 109 % of control

Question: What about the T/C (dose: 0.5 mg/kg/injection, schedule: Q04DX003 (ip), vehicle: saline) of the same compound?
Answer: 100 % of control

Question: And the T/C (dose: 0.8 mg/kg/injection, schedule: Q01DX001 (ip), vehicle: saline)?
Answer: 170 % of control

Question: And the T/C (dose: 1.0 mg/kg/injection, schedule: Q01DX010 (oral), vehicle: saline)?
Answer: 100 % of control

Question: What about the T/C (dose: 1.6 mg/kg/injection, schedule: Q01DX001 (ip), vehicle: saline) of the same compound?
Answer: 162 % of control

Question: What about the T/C (dose: 2.0 mg/kg/injection, schedule: Q01DX001 (oral), vehicle: saline) of the same compound?
Answer: 109 % of control

Question: What about the T/C (dose: 2.0 mg/kg/injection, schedule: Q01DX010 (oral), vehicle: saline) of the same compound?
Answer: 100 % of control

Question: And the T/C (dose: 0.9 micrograms/kg/injection, schedule: Q01DX010 (ip), vehicle: saline)?
Answer: 90 % of control

Question: And the T/C (dose: 1.9 micrograms/kg/injection, schedule: Q01DX010 (ip), vehicle: saline)?
Answer: 86 % of control

Question: And the T/C (dose: 3.8 micrograms/kg/injection, schedule: Q01DX010 (ip), vehicle: saline)?
Answer: 100 % of control

Question: What about the T/C (dose: 3.8 micrograms/kg/injection, schedule: Q03HX024 (ip), vehicle: saline) of the same compound?
Answer: 177 % of control

Question: And the T/C (dose: 8.0 micrograms/kg/injection, schedule: Q01DX010 (ip), vehicle: saline)?
Answer: 150 % of control

Question: And the T/C (dose: 16.0 micrograms/kg/injection, schedule: Q01DX010 (ip), vehicle: saline)?
Answer: 160 % of control

Question: And the T/C (dose: 32.0 micrograms/kg/injection, schedule: Q01DX010 (ip), vehicle: saline)?
Answer: 180 % of control and 195 % of control

Question: What about the T/C (dose: 60.0 micrograms/kg/injection, schedule: Q01DX010 (ip), vehicle: saline) of the same compound?
Answer: 154 % of control

Question: What about the T/C (dose: 62.0 micrograms/kg/injection, schedule: Q01DX009 (ip), vehicle: other) of the same compound?
Answer: 150 % of control

Question: What about the T/C (dose: 63.0 micrograms/kg/injection, schedule: Q01DX010 (ip), vehicle: saline) of the same compound?
Answer: 163 % of control and 185 % of control and 210 % of control

Question: What about the T/C (dose: 125.0 micrograms/kg/injection, schedule: Q01DX001 (ip), vehicle: clinical formulation) of the same compound?
Answer: 154 % of control and 168 % of control and 181 % of control

Question: And the T/C (dose: 125.0 micrograms/kg/injection, schedule: Q01DX001 (ip), vehicle: water)?
Answer: 213 % of control

Question: What about the T/C (dose: 125.0 micrograms/kg/injection, schedule: Q01DX009 (ip), vehicle: other) of the same compound?
Answer: 166 % of control

Question: And the T/C (dose: 125.0 micrograms/kg/injection, schedule: Q01DX010 (ip), vehicle: saline)?
Answer: 300 % of control and 209 % of control

Question: And the T/C (dose: 200.0 micrograms/kg/injection, schedule: Q01DX009 (ip), vehicle: saline)?
Answer: 100 % of control

Question: And the T/C (dose: 250.0 micrograms/kg/injection, schedule: Q01DX001 (ip), vehicle: clinical formulation)?
Answer: 186 % of control and 195 % of control and 200 % of control

Question: And the T/C (dose: 250.0 micrograms/kg/injection, schedule: Q01DX001 (ip), vehicle: water)?
Answer: 250 % of control

Question: What about the T/C (dose: 500.0 micrograms/kg/injection, schedule: Q01DX001 (ip), vehicle: clinical formulation) of the same compound?
Answer: 236 % of control and 190 % of control and 213 % of control

Question: What about the T/C (dose: 1000.0 micrograms/kg/injection, schedule: Q01DX001 (ip), vehicle: clinical formulation) of the same compound?
Answer: 231 % of control

Question: What about the T/C (dose: 2000.0 micrograms/kg/injection, schedule: Q01DX001 (ip), vehicle: clinical formulation) of the same compound?
Answer: 100 % of control
